{"source": "paper PMC8847695", "about": "(Frontiers in Chemistry, 2022)", "format_in_all_cases": "binding", "conditions_in_all_cases": "1 = hit, 0 = no hit", "key": {"CAMK1G (1-320)": {"target": "T1, CAMK1G (1-320) (Homo sapiens, UniProt Q96NX5)", "T1 construct": "made in house; host or cells: E. coli BL21 (DE3) pLysS", "T1 sequence (Q96NX5 1-320)": "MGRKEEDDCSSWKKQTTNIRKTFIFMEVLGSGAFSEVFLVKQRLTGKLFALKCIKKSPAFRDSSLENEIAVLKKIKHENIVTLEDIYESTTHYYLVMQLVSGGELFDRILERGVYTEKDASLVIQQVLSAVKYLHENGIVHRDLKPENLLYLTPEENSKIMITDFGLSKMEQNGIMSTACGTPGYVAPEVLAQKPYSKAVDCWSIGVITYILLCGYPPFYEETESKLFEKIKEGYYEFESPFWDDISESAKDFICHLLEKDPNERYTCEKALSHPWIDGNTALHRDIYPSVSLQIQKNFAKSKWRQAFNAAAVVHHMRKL", "assay": "STD-NMR fragment screening, CAMK1G", "method": "(§1) All fragments were stored at −20°C as solids in argon flushed glass bottles. For NMR screening, fragments were weighed and dissolved in DMSO-d6 to a stock concentration of 300 mM. Mother plates were prepared with a 100 mM concentration. From these plates, daughter plates were prepared with the fragments mixed in the plates to a concentration of 50 mM for each fragment. Daughter plates were opened a maximum of eight times. The plates were argon flushed and sealed with a HT121TS (HTA) and Foil Heat Seal (Biozym).\n(§2) For long time measurements, like the protein ^1H NMR spectrum, the buffer exchange was performed twice to reduce residual buffer peaks. All experiments were performed on a Bruker Avance III HDX 700 instrument, equipped with a 5 mm Prodigy TCI cryo-probehead. For every protein, a standard ^1H NMR experiment with 1 k scans and water suppression through presaturation was performed. […] The on-resonance frequency, which was determined from the ^1H NMR spectra of the protein, was between 0.5 and 0.6 ppm; 40 ppm was used as the off-resonance frequency. For an interleaved acquisition of the on- and off-resonance, a pseudo-2D scheme was applied. The saturation was done by Gaussian pulses with a length of 50 ms and 60 dB of attenuation, with an interpulse delay of 1 ms leading to an excitation bandwidth of about 42 Hz. The screening was done with 16 scans of on- and off-resonance scans each, with a 3 s saturation time. The samples contained final concentrations of 20 µM protein, 10% (^V/V) DMSO-d6, and 1 mM of each of the two fragments. A ^1H-NMR experiment was performed for each compound to act as a reference spectrum in the STD experiments. All NMR experiments were carried out at 25°C.\n(§3) Fifteen of these compounds contain the same halogen twice. No compound bears mixtures of different halogen atoms. Four proteins (AAK1, CAMK1G, IDO1, and DOT1L) were screened against this HEFLib using STD-NMR. A fragment was considered a hit if the peak intensity in the difference spectrum was three times higher than the local background noise. […] Chemical compatibility and peak complementarity were assured for these mixtures. Samples containing more than two fragments were avoided to minimize the possible target competition and to decrease the risk of fragment interactions. […] The ^1H reference NMR spectrum of the mixture is shown in red for comparison. […] As fragment mixtures can lead to competitive effects between their fragments, it is not advised to use the quantification of peak mixtures for hit ranking."}, "AAK1 (121-471)": {"target": "AAK1 (121-471) (Homo sapiens, UniProt Q2M2I8)", "sequence (Q2M2I8 46-315 limits assumed)": "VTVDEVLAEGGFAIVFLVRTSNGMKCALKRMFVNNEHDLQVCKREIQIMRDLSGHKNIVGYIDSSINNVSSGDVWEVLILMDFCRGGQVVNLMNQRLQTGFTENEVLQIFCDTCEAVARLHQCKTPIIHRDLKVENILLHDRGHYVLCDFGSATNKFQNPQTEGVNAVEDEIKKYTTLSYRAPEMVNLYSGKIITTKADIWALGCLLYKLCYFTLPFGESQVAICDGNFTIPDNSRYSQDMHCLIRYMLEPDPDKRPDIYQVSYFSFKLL", "assay": "STD-NMR fragment screening, AAK1", "method": "as §1, §2, §3"}, "IDO1 (1-435)": {"target": "T2, IDO1 (1-435) (Homo sapiens, UniProt P14902)", "T2 construct": "His-tag of pET15b with TEV site (thrombin site replaced) (cleaved yes); made in house; host or cells: E. coli Rosetta 2 (DE3) pLysS", "T2 sequence (P14902 whole entry, the tested form may be a part)": "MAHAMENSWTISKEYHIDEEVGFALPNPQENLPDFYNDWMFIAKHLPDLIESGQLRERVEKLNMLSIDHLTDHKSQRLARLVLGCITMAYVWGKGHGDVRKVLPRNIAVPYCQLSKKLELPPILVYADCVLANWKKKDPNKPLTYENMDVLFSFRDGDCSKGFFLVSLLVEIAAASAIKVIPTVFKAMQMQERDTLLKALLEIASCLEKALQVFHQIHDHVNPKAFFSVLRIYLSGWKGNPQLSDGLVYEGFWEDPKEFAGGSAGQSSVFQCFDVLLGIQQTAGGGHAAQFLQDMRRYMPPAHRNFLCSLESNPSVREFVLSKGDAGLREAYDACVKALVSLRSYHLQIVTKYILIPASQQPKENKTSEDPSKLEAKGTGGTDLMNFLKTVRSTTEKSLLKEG", "assay": "STD-NMR fragment screening, IDO1", "method": "as §1, §2, §3"}, "DOT1L (1-416)": {"target": "T3, DOT1L (1-416) (Homo sapiens, UniProt Q8TEK3)", "T3 construct": "made in house; host or cells: E. coli BL21 (DE3) pLysS", "T3 sequence (Q8TEK3 1-416)": "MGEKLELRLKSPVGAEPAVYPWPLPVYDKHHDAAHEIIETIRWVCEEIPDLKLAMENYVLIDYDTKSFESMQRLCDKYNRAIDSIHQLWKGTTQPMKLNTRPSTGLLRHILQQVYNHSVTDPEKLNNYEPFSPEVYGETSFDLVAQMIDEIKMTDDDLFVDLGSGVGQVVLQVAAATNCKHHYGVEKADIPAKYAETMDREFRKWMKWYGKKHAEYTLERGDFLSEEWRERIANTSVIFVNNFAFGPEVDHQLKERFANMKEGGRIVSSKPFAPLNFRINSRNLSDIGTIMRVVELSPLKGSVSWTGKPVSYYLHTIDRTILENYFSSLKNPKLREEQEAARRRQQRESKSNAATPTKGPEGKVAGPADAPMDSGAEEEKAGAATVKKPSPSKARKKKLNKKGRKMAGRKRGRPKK", "assay": "STD-NMR fragment screening, DOT1L", "method": "as §1, §2, §3"}}}
{"smiles": "NCc1cc(Br)no1", "note": "[Fragment B02289609]", "values": [{"measurement": "CAMK1G (STD-NMR hit flag)", "setting": "CAMK1G (1-320)", "result": 0}, {"measurement": "AAK1 (STD-NMR hit flag)", "setting": "AAK1 (121-471)", "result": 0}, {"measurement": "IDO1 (STD-NMR hit flag)", "setting": "IDO1 (1-435)", "result": 0}, {"measurement": "DOT1L (STD-NMR hit flag)", "setting": "DOT1L (1-416)", "result": 0}]}
{"smiles": "Brc1cnn2cccnc12", "note": "[Fragment B02289610]", "values": [{"measurement": "CAMK1G (STD-NMR hit flag)", "setting": "CAMK1G (1-320)", "result": 1}, {"measurement": "AAK1 (STD-NMR hit flag)", "setting": "AAK1 (121-471)", "result": 1}, {"measurement": "IDO1 (STD-NMR hit flag)", "setting": "IDO1 (1-435)", "result": 0}, {"measurement": "DOT1L (STD-NMR hit flag)", "setting": "DOT1L (1-416)", "result": 0}]}
{"smiles": "O=C(O)c1cncc(Cl)n1", "note": "[Fragment B02289611]", "values": [{"measurement": "CAMK1G (STD-NMR hit flag)", "setting": "CAMK1G (1-320)", "result": 0}, {"measurement": "AAK1 (STD-NMR hit flag)", "setting": "AAK1 (121-471)", "result": 0}, {"measurement": "IDO1 (STD-NMR hit flag)", "setting": "IDO1 (1-435)", "result": 0}, {"measurement": "DOT1L (STD-NMR hit flag)", "setting": "DOT1L (1-416)", "result": 0}]}
{"smiles": "Nc1ncc(Br)cc1C(=O)O", "note": "[Fragment B02289612]", "values": [{"measurement": "CAMK1G (STD-NMR hit flag)", "setting": "CAMK1G (1-320)", "result": 0}, {"measurement": "AAK1 (STD-NMR hit flag)", "setting": "AAK1 (121-471)", "result": 0}, {"measurement": "IDO1 (STD-NMR hit flag)", "setting": "IDO1 (1-435)", "result": 1}, {"measurement": "DOT1L (STD-NMR hit flag)", "setting": "DOT1L (1-416)", "result": 0}]}
{"smiles": "CCOC(=O)c1coc(Cl)n1", "note": "[Fragment B02289613]", "values": [{"measurement": "CAMK1G (STD-NMR hit flag)", "setting": "CAMK1G (1-320)", "result": 0}, {"measurement": "AAK1 (STD-NMR hit flag)", "setting": "AAK1 (121-471)", "result": 0}, {"measurement": "IDO1 (STD-NMR hit flag)", "setting": "IDO1 (1-435)", "result": 0}, {"measurement": "DOT1L (STD-NMR hit flag)", "setting": "DOT1L (1-416)", "result": 0}]}
{"smiles": "O=C(O)c1ncccc1Br", "note": "[Fragment B02289614]", "values": [{"measurement": "CAMK1G (STD-NMR hit flag)", "setting": "CAMK1G (1-320)", "result": 0}, {"measurement": "AAK1 (STD-NMR hit flag)", "setting": "AAK1 (121-471)", "result": 0}, {"measurement": "IDO1 (STD-NMR hit flag)", "setting": "IDO1 (1-435)", "result": 0}, {"measurement": "DOT1L (STD-NMR hit flag)", "setting": "DOT1L (1-416)", "result": 0}]}
{"smiles": "O=C(O)c1ccc(Cl)c(O)c1", "note": "[Fragment B02289615]", "values": [{"measurement": "CAMK1G (STD-NMR hit flag)", "setting": "CAMK1G (1-320)", "result": 0}, {"measurement": "AAK1 (STD-NMR hit flag)", "setting": "AAK1 (121-471)", "result": 0}, {"measurement": "IDO1 (STD-NMR hit flag)", "setting": "IDO1 (1-435)", "result": 0}, {"measurement": "DOT1L (STD-NMR hit flag)", "setting": "DOT1L (1-416)", "result": 0}]}
{"smiles": "Cc1ccc(N)c(Cl)n1", "note": "[Fragment B02289616]", "values": [{"measurement": "CAMK1G (STD-NMR hit flag)", "setting": "CAMK1G (1-320)", "result": 0}, {"measurement": "AAK1 (STD-NMR hit flag)", "setting": "AAK1 (121-471)", "result": 1}, {"measurement": "IDO1 (STD-NMR hit flag)", "setting": "IDO1 (1-435)", "result": 0}, {"measurement": "DOT1L (STD-NMR hit flag)", "setting": "DOT1L (1-416)", "result": 0}]}
{"smiles": "Brc1cnc2cnccn12", "note": "[Fragment B02289617]", "values": [{"measurement": "CAMK1G (STD-NMR hit flag)", "setting": "CAMK1G (1-320)", "result": 1}, {"measurement": "AAK1 (STD-NMR hit flag)", "setting": "AAK1 (121-471)", "result": 0}, {"measurement": "IDO1 (STD-NMR hit flag)", "setting": "IDO1 (1-435)", "result": 0}, {"measurement": "DOT1L (STD-NMR hit flag)", "setting": "DOT1L (1-416)", "result": 0}]}
{"smiles": "O=c1[nH]cnc(O)c1Br", "note": "[Fragment B02289618]", "values": [{"measurement": "CAMK1G (STD-NMR hit flag)", "setting": "CAMK1G (1-320)", "result": 0}, {"measurement": "AAK1 (STD-NMR hit flag)", "setting": "AAK1 (121-471)", "result": 0}, {"measurement": "IDO1 (STD-NMR hit flag)", "setting": "IDO1 (1-435)", "result": 0}, {"measurement": "DOT1L (STD-NMR hit flag)", "setting": "DOT1L (1-416)", "result": 0}]}
{"smiles": "Cc1ncccc1Br", "note": "[Fragment B02289619]", "values": [{"measurement": "CAMK1G (STD-NMR hit flag)", "setting": "CAMK1G (1-320)", "result": 1}, {"measurement": "AAK1 (STD-NMR hit flag)", "setting": "AAK1 (121-471)", "result": 0}, {"measurement": "IDO1 (STD-NMR hit flag)", "setting": "IDO1 (1-435)", "result": 0}, {"measurement": "DOT1L (STD-NMR hit flag)", "setting": "DOT1L (1-416)", "result": 0}]}
{"smiles": "Cn1ccc(Br)n1", "note": "[Fragment B02289620]", "values": [{"measurement": "CAMK1G (STD-NMR hit flag)", "setting": "CAMK1G (1-320)", "result": 0}, {"measurement": "AAK1 (STD-NMR hit flag)", "setting": "AAK1 (121-471)", "result": 0}, {"measurement": "IDO1 (STD-NMR hit flag)", "setting": "IDO1 (1-435)", "result": 1}, {"measurement": "DOT1L (STD-NMR hit flag)", "setting": "DOT1L (1-416)", "result": 0}]}
{"smiles": "Nc1ncnc(Cl)c1Cl", "note": "[Fragment B02289621]", "values": [{"measurement": "CAMK1G (STD-NMR hit flag)", "setting": "CAMK1G (1-320)", "result": 1}, {"measurement": "AAK1 (STD-NMR hit flag)", "setting": "AAK1 (121-471)", "result": 1}, {"measurement": "IDO1 (STD-NMR hit flag)", "setting": "IDO1 (1-435)", "result": 0}, {"measurement": "DOT1L (STD-NMR hit flag)", "setting": "DOT1L (1-416)", "result": 0}]}
{"smiles": "Brc1cncnc1", "note": "[Fragment B02289809]", "values": [{"measurement": "CAMK1G (STD-NMR hit flag)", "setting": "CAMK1G (1-320)", "result": 0}, {"measurement": "AAK1 (STD-NMR hit flag)", "setting": "AAK1 (121-471)", "result": 0}, {"measurement": "IDO1 (STD-NMR hit flag)", "setting": "IDO1 (1-435)", "result": 0}, {"measurement": "DOT1L (STD-NMR hit flag)", "setting": "DOT1L (1-416)", "result": 0}]}
{"smiles": "Brc1cnc(N2CCCNCC2)nc1", "note": "[Fragment B02290087]", "values": [{"measurement": "CAMK1G (STD-NMR hit flag)", "setting": "CAMK1G (1-320)", "result": 1}, {"measurement": "AAK1 (STD-NMR hit flag)", "setting": "AAK1 (121-471)", "result": 0}, {"measurement": "IDO1 (STD-NMR hit flag)", "setting": "IDO1 (1-435)", "result": 0}, {"measurement": "DOT1L (STD-NMR hit flag)", "setting": "DOT1L (1-416)", "result": 0}]}
{"smiles": "COc1ccc(CN)c(Cl)c1", "note": "[Fragment B02290088]", "values": [{"measurement": "CAMK1G (STD-NMR hit flag)", "setting": "CAMK1G (1-320)", "result": 0}, {"measurement": "AAK1 (STD-NMR hit flag)", "setting": "AAK1 (121-471)", "result": 0}, {"measurement": "IDO1 (STD-NMR hit flag)", "setting": "IDO1 (1-435)", "result": 0}, {"measurement": "DOT1L (STD-NMR hit flag)", "setting": "DOT1L (1-416)", "result": 0}]}
{"smiles": "CN(N)c1ncc(C(F)(F)F)cc1Cl", "note": "[Fragment B02290089]", "values": [{"measurement": "CAMK1G (STD-NMR hit flag)", "setting": "CAMK1G (1-320)", "result": 0}, {"measurement": "AAK1 (STD-NMR hit flag)", "setting": "AAK1 (121-471)", "result": 0}, {"measurement": "IDO1 (STD-NMR hit flag)", "setting": "IDO1 (1-435)", "result": 0}, {"measurement": "DOT1L (STD-NMR hit flag)", "setting": "DOT1L (1-416)", "result": 0}]}
